The assay has as its target T1, human orexin type 2 receptor (hOX2R) (Homo sapiens, UniProt O43614).
T1 construct: the Orexin receptor cDNA was inserted into pcDNA3.1(+) plasmid vector; expressed in transfected cells
T1 sequence (O43614 1-444): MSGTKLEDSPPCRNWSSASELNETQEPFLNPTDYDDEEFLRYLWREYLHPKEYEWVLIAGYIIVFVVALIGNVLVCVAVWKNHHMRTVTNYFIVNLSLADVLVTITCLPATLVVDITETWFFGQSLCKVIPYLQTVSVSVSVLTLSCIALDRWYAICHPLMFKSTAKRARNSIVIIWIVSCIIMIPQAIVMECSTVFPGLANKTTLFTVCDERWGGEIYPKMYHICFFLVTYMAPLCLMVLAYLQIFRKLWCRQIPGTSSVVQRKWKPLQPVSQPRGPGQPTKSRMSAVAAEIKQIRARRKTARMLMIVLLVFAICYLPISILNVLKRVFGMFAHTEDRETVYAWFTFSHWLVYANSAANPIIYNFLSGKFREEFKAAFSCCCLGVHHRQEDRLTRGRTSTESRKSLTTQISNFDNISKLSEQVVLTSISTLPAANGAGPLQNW
The assay can be described thus: Orexin type 2 receptor agonist activity, intracellular Ca2+ (FLIPR TETRA) in CHO cells. Type of assay: cell-based. Particulars: CHO cells expressing hOX2R, Ca2+ fluorescence area, 100% = 10 nM human orexin A; for EC50: read-out: hOx2 pEC50 (converted). The method, then:
Stable cell line generation. Obtainment of cells stably expressing either human orexin type 2 or human orexin type 1 receptor: to obtain a stable cell line the Orexin receptor cDNA was inserted into pcDNA3.1(+) plasmid vector and clones identified by G418 drug resistance selection. […] A single clone for OX2R—CHO and OX1R—CHO were grown in bulk and frozen to generate a cell bank for routine screening.
Measurement of orexin type 2 receptor agonist activity. Chinese hamster ovary (CHO) cells expressing human orexin type 2 receptor (hOX2R) or human orexin type 1 receptor (hOX1R) were seeded in each well of 384 well black clear bottom plates (BD Flacon) at 10,000 cells per well and cultured for 24 hr in an Ham's F12 (Gibco) medium containing 10% fetal calf serum (Sigma Aldrich) under the conditions of 37° C., 5% CO2. After removal of the medium, 50 μl of assay buffer 1 (0.1% bovine serum albumin (Sigma Aldrich), 20 mM HEPES (Molecular Dimensions), […] probenecid (Sigma Aldrich), 1× Calcium 5 dye (Molecular Devices) in Hank's balanced salt solution (Invitrogen)) was added, and the cells were incubated for 60 min under the conditions of 37° C., 5% CO2. A test compound was dissolved in dimethyl sulfoxide (Sigma Aldrich) to 10 mM, and then diluted with assay buffer 2 (20 mM HEPES, Hank's balanced salt solution, 0.1% bovine serum albumin). For the reaction, a test compound solution (10 μl) was added using Fluorescent Imaging Plate Reader TETRA (FLIPR TETRA: manufactured by Molecular Devices), a fluorescence value (excitation wavelength 488 nm, measurement wavelength 570 nm) of each well was measured every one second for 2 min, and the agonist activity was determined using the area of the fluorescence value as an indicator of intracellular Ca^2+ concentration. The agonist activity of the test compound was calculated assuming that the fluorescence value of the well added with only the dilution buffer was 0% and the fluorescence value of the well added with 10 nM human orexin A (Tocris) buffer was 100%.
Values of hOx2 pEC50 in Table B are presented in ranges, in which 6.0≤“+”<7.0, 7.0≤“++”<8.0, 8.0≤“+++”<9.0, and 9.0≤“++++”<10.4.

In the case of `CCS(=O)(=O)N[C@H]1[C@@H](F)CN2C(=O)N(C)CCOc3c(F)cccc3-c3cccc(c3F)C[C@@H]12` [Example 18, N-((4^2S,4^3R,4^4S)-1^3,2^2,4^4-trifluoro-6-methyl-5-oxo-9-oxa-6-aza-4(2,1)-pyrrolidina-1(1,2),2(1,3)-dibenzenacyclononaphane-4^3-yl)ethanesulfonamide], the EC50 is 1 to 10 nM.

Turning to `C[C@H]1CN2C(=O)N(C)CCOc3ccccc3-c3cccc(c3F)C[C@H]2[C@H]1NS(=O)(=O)CF` [Example 2, 1-fluoro-N-((4^2S,4^3S,4^4S)-2^2-fluoro-4^4,6-dimethyl-5-oxo-9-oxa-6-aza-4(2,1)-pyrrolidina-1(1,2),2(1,3)-dibenzenacyclononaphane-4^3-yl)methanesulfonamide], the EC50 was 10 to 100 nM.

Take `CCS(=O)(=O)N[C@H]1[C@@H](F)CN2C(=O)N(C)CCOc3ccccc3-c3cccc(c3F)C[C@@H]12` [Example 17, N-((4^2S,4^3R,4^4S)-2^2,4^4-difluoro-6-methyl-5-oxo-9-oxa-6-aza-4(2,1)-pyrrolidina-1(1,2),2(1,3)-dibenzenacyclononaphane-4^3-yl)ethanesulfonamide]: the EC50 was 1 to 10 nM.

On to `CC(C)S(=O)(=O)N[C@H]1CCCN2C(=O)CCOc3ccccc3-c3cccc(c3F)C[C@@H]12` [Example 3, N-((4^2S,4^3S)-22-fluoro-5-oxo-8-oxa-4(2,1)-piperidina-1(1,2),2(1,3)-dibenzenacyclooctaphane-4^3-yl)propane-2-sulfonamide], for which the EC50 was 0.0398 to 1 nM.

As for `C[C@@H](F)S(=O)(=O)N[C@H]1CCCN2C(=O)CCOc3ccccc3-c3cccc(c3)C[C@@H]12` [Example 28, (S)-1-fluoro-N-((4^2S,4^3S)-5-oxo-8-oxa-4(2,1)-piperidina-1(1,2),2(1,3)-dibenzenacyclooctaphane-4^3-yl)ethane-1-sulfonamide], the EC50 is 0.0398 to 1 nM.

Consider `CN1CCOc2c(F)cccc2-c2cccc(c2)C[C@H]2[C@@H](NS(=O)(=O)CF)C(F)(F)CN2C1=O` [Example 7, 1-fluoro-N-((4^2S,4^3R)-1^3,4^4,4^4-trifluoro-6-methyl-5-oxo-9-oxa-6-aza-4(2,1)-pyrrolidina-1(1,2),2(1,3)-dibenzenacyclononaphane-4^3-yl)methanesulfonamide], for which the EC50 is 1 to 10 nM.

Take `CN1CCOc2ccccc2-c2cccc(c2F)C[C@H]2[C@@H](NS(=O)(=O)C(F)F)C3(CC3)CN2C1=O` [Example 4, 1,1-difluoro-N-((2′S,3′S)-2′-fluoro-6′-methyl-5′-oxospiro[cyclopropane-1,4′-9-oxa-6-aza-4(2,1)-pyrrolidina-1(1,2),2(1,3)-dibenzenacyclononaphan]-3′-yl)methanesulfonamide]: the EC50 was 1 to 10 nM.

As to “N-((2′S,3′S)-3′-fluoro-6′-methyl-5′-oxospiro[cyclopropane-1,4′-9-oxa-6-aza-4(2,1)-pyrrolidina-1(1,2),2(1,3)-dibenzenacyclononaphan]-3′-yl)ethanesulfonamide [Example 19]”, the “hOx2 pEC50” value is “+++ (8.0≤“+++”<9.0)”.

On to `CN1CCOc2c(F)cccc2-c2cccc(c2)C[C@H]2[C@@H](NS(=O)(=O)CF)C3(CC3)CN2C1=O` [Example 30, 1-fluoro-N-((2′S,3′S)-3′-fluoro-6′-methyl-5′-oxospiro[cyclopropane-1,4′-9-oxa-6-aza-4(2,1)-pyrrolidina-1(1,2),2(1,3)-dibenzenacyclononaphan]-3′-yl)methanesulfonamide], for which the EC50 is 10 to 100 nM.

`O=C1CCOc2ccccc2-c2cccc(c2F)C[C@H]2[C@@H](NS(=O)(=O)C3(F)CC3)CCCN12` [Example 36, 1-fluoro-N-((4^2S,4^3S)-2^2-fluoro-5-oxo-8-oxa-4(2,1)-piperidina-1(1,2),2(1,3)-dibenzenacyclooctaphane-4^3-yl)cyclopropane-1-sulfonamide]: the EC50 is 1 to 10 nM.

With `CN1CCOc2c(F)cc(F)cc2-c2cccc(c2F)C[C@H]2[C@@H](NS(=O)(=O)C(F)F)[C@@H](F)CN2C1=O` [Example 11, 1,1-difluoro-N-((4^2S,4^3R,4^4S)-1^3,1^5,2^2,4^4-tetrafluoro-6-methyl-5-oxo-9-oxa-6-aza-4(2,1)-pyrrolidina-1(1,2),2(1,3)-dibenzenacyclononaphane-4^3-yl)methanesulfonamide], the EC50 was 10 to 100 nM.

In the case of `CN1CCOc2c(F)cccc2-c2cccc(c2)C[C@H]2[C@@H](NS(=O)(=O)C(F)F)C(F)(F)CN2C1=O` [Example 1, 1,1-difluoro-N-((4^2S,4^3R)-1^3,4^4,4^4-trifluoro-6-methyl-5-oxo-9-oxa-6-aza-4(2,1)-pyrrolidina-1(1,2),2(1,3)-dibenzenacyclononaphane-4^3-yl)methanesulfonamide], the EC50 is 10 to 100 nM.

Take `CCS(=O)(=O)N[C@H]1CCCN2C(=O)CCOc3ccccc3-c3cccc(c3F)C[C@@H]12` [Example 27, N-((4^2S,4^3S)-22-fluoro-5-oxo-8-oxa-4(2,1)-piperidina-1(1,2),2(1,3)-dibenzenacyclooctaphane-4^3-yl)ethanesulfonamide]: the EC50 was 1 to 10 nM.

On to `O=C1N(CC(F)F)CCOc2c(F)cccc2-c2cccc(c2)C[C@H]2[C@@H](NS(=O)(=O)CF)C3(CC3)CN12` [Example 22, N-((2′S,3′S)-6′-(2,2-difluoro-ethyl)-3′-fluoro-5′-oxospiro[cyclopropane-1,4′-9-oxa-6-aza-4(2,1)-pyrrolidina-1(1,2),2(1,3)-dibenzenacyclononaphan]-3′-yl)-1-fluoromethanesulfonamide], for which the EC50 was 1 to 10 nM.

With `CCN1CCOc2ccccc2-c2cccc(c2)C[C@H]2[C@@H](NS(=O)(=O)C(F)F)C3(CC3)CN2C1=O` [Example 10, N-((2′S,3′S)-6′-ethyl-5′-oxospiro[cyclopropane-1,4′-9-oxa-6-aza-4(2,1)-pyrrolidina-1(1,2),2(1,3)-dibenzenacyclononaphan]-3′-yl)-1,1-difluoromethanesulfonamide], the EC50 is 1 to 10 nM.

Regarding `CC(C)(F)S(=O)(=O)N[C@H]1CCCN2C(=O)CCOc3ccccc3-c3cccc(c3F)C[C@@H]12` [Example 33, 2-fluoro-N-((4^2S,4^3S)-2^2-fluoro-5-oxo-8-oxa-4(2,1)-piperidina-1(1,2),2(1,3)-dibenzenacyclooctaphane-4^3-yl)propane-2-sulfonamide], the EC50 is 1 to 10 nM.

As to `O=C1CCOc2c(F)cc(F)cc2-c2cccc(c2)C[C@H]2[C@@H](NS(=O)(=O)C(F)F)CCCN12` [Example 14, N-((4^2S,4^3S)-1^3,1^5-difluoro-5-oxo-8-oxa-4(2,1)-piperidina-1(1,2),2(1,3)-dibenzenacyclooctaphane-4^3-yl)-1,1-difluoromethanesulfonamide], the EC50 was 1 to 10 nM.

For the compound `CCS(=O)(=O)N[C@H]1[C@@H](F)CN2C(=O)N(C)CCOc3c(F)cccc3-c3cccc(c3)C[C@@H]12` [Example 16, N-((4^2S,4^3R,4^4S)-1^3,4^4-difluoro-6-methyl-5-oxo-9-oxa-6-aza-4(2,1)-pyrrolidina-1(1,2),2(1,3)-dibenzenacyclononaphane-4^3-yl)ethanesulfonamide], the EC50 is 1 to 10 nM.

For `O=C1CCOc2ccccc2-c2cccc(c2)C[C@H]2[C@@H](NS(=O)(=O)C3(F)CC3)[C@@H](F)CCN12` [Example 45, 1-fluoro-N-((4^2S,4^3R,4^4S)-4^4-fluoro-5-oxo-8-oxa-4 (2,1)-piperidina-1 (1,2),2 (1,3)-dibenzenacyclooctaphane-4^3-yl)cyclopropane-1-sulfonamide], the EC50 was 1 to 10 nM.

With `CN1CCOc2c(F)cccc2-c2cccc(c2)C[C@H]2[C@@H](NS(=O)(=O)CF)[C@@H](F)CN2C1=O` [Example 21, N-((4^2S,4^3R,4^4S)-1^3,4^4-difluoro-6-methyl-5-oxo-9-oxa-6-aza-4(2,1)-pyrrolidina-1(1,2),2(1,3)-dibenzenacyclononaphane-4^3-yl)-1-fluoromethanesulfonamide], the EC50 was 1 to 10 nM.

Values taken from patent publication US20250236629A1, “MEDIUM- OR MACRO-CYCLIC BENZYL-SUBSTITUTED HETEROCYCLE DERIVATIVES AND RELATED USES” (CENTESSA PHARMACEUTICALS (UK) LIMITED, priority 2022, published 2025).
